Experimental data as given in patent US8124111B2, “Immunomodulation by altering sphingosine 1-phosphate lyase (SPL) activity” (Children's Hospital & Research Center at Oakland, priority 2005, dated 2012).

How the values were obtained:
[1] = system: human SPL luciferase reporter construct; assay: SPL gene expression, human SPL luciferase reporter in HEK293 cells; type: cell-based; settings: 0.3 μM or 3.0 μM, 24 hours
Procedure: (§1) (A) SPL gene expression. HEK293 cells were co-transfected with a human SPL luciferase reporter construct and the sea pansy luciferase reporter as a control for transfection efficiency. Twenty-four hours after transfection, cells were treated with 0.3 μM FTY720, 3.0 μM FTY720 or vehicle and incubated for another 24 hours at 37° C. Luciferase activity was then determined as a measure of expression, as described in Experimental Methods. Values shown are luciferase activity normalized to sea pansy luciferase; (B) SPL protein expression. Thymic extracts from control mice (time 0) and mice treated with FTY720 for 24 hours were evaluated for SPL protein expression by immunoblotting. Actin was used as a loading control.
(§2) SPL expression: To evaluate the effect of FTY720 and FTY720-P on SPL gene expression, HEK293 cells were treated for 30 minutes with 3 μM of either drug, followed by transfection with pSPL-BamHI, a human SPL-luciferase reporter construct. After 48 hours, reporter expression was determined by luciferase activity as described (Oskouian et al., (2005) J Biol Chem 280, 18403-18410)). Western blotting of mouse tissue extracts was performed using a 1:2000 dilution of polyclonal sera raised against the murine SPL C-terminal peptide: (NH2)—V-T-Q-G-N-Q-M-N-G-S—P—K—P—R—(COOH). [SEQ ID NO:11] […]

SPL = biological target: T1, SPL (Mus musculus, UniProt Q8R0X7); assay: SPL activity in thymic tissue after FTY720 administration in vivo; set-up: species or system FVB mice; settings: for SPL enzyme inhibition in tissue homogenates: animals treated with FTY720 for 24 hours
T1 construct: from tissue; host or cells: thymus of FVB mice
T1 sequence (Q8R0X7 1-568): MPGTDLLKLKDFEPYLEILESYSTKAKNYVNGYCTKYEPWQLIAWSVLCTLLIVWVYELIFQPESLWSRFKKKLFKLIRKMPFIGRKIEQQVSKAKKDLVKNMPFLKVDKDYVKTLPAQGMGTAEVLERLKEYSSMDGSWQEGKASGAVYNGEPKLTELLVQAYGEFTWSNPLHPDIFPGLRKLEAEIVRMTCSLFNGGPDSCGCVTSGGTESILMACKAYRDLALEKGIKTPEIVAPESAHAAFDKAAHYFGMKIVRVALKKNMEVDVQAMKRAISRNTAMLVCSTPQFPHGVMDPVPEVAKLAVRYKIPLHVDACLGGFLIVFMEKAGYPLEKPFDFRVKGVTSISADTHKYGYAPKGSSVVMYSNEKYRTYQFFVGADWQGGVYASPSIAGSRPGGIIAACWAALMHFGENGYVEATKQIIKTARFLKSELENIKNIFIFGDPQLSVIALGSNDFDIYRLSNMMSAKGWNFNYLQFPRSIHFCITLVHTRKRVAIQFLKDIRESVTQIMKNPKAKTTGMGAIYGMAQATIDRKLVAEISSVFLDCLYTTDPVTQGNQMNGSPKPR
Procedure: One mg/kg FTY720 was administered by peritoneal injection to FVB mice at time zero. Mice were euthanized at the indicated times, and SPL activity in thymic tissue was determined.
Drug treatments and leukocyte/lymphocyte counts: Four-week old FVB or C3H mice were obtained from Charles River Laboratories (Wilmington, Mass.). Animals were maintained in a pathogen-free facility in microisolator cages. Mice were anaesthetized with isoflurane inhalation, and a single dose of FTY720 (at 1 or 3 mg/kg) or GT11 (at 1, 10 or 100 mg/kg) in sterile water was injected intraperitoneally at time zero. Blood counts were determined by Coulter counter (Coulter Instruments, Hialeah, Fla.) and by manual differential counting. Mice were euthanized by CO2 inhalation at various time points post-injection, followed by tissue harvest. All animal studies were performed in accordance with approved CHORI IACUC protocols.
SPL enzyme assay: Tissues were homogenized by sonication in 9 volumes of ice-cold homogenization buffer (5 mM MOPS pH 7.5, 1 mM DTT, 1 mM EDTA, 0.25 M sucrose, and 5 micrograms/ml each chymostatin, leupeptin, pepstatin A and antipain). SPL assays were conducted using 50 micrograms protein per assay and radioactive [4,5 ^3H]DHS1P substrate, as described previously (Reiss et al., (2004) J Biol Chem 279, 1281-1290). For in vitro FTY720 and FTY720-P experiments, drug was incubated with whole cell extracts prepared from HEK293 cells infected with an adenoviral vector expressing human SPL. These extracts contained approximately 200 picomoles/mg protein/minute SPL activity. Drug was incubated with extracts for 30 minutes, followed by addition of extracts to reaction buffer and substrate to initiate the reaction.
Inhibition of SPL by FTY720 in vivo—The effect on SPL enzyme activity of FTY720 administration was tested. Four-week old female FVB mice were given 1 mg/kg FTY720 by intraperitoneal injection, and tissue SPL activity in thymus was assessed over time. […] SPL inhibition occurred concomitantly with lymphopenia, and was consistent with the timing of lymphopenia reported previously (Chiba et al., (1998) J Immunol 160, 5037-5044) (Table 1).
To address whether the inhibition of SPL activity in homogenates of tissues isolated from FTY720 treated animals was reversible, tissue SPL activity was measured in the presence of increasing amounts of non-radiolabeled DHS1P substrate.

SPL protein expression = SPL protein expression in thymic extracts by immunoblotting; type: in vivo; settings: mice treated for 24 hours
Procedure: as §1, §2

[2] = 1 mg/kg FTY720 intraperitoneal, FVB mice, thymus

earliest time at which inhibition of SPL was noted (SPL; [2]): 12 h | time by which SPL inhibition began to reverse (SPL; [2]): ≤ 48 h | SPL enzyme inhibition in tissue homogenates (SPL; 10 nmol substrate (standard assay conditions)): 21% | SPL enzyme inhibition in tissue homogenates (SPL; 40 nmol unlabeled substrate): 25% | SPL enzyme inhibition in tissue homogenates (SPL; 2-fold increase in unlabeled DHS1P substrate): 14% | inhibition at 1 mg/kg (SPL; mouse, ip, 1 mg/kg FTY720 intraperitoneal, FVB mice, thymus, at 36 hours, read-out: peak inhibition of SPL activity): ~40%
SMILES: CCCCCCCCc1ccc(CCC(N)(CO)CO)cc1 [FTY720]
SPL gene expression (luciferase activity normalized to sea pansy luciferase) [1]: not affected | SPL protein expression (immunoblotting) (SPL protein expression): not affected
